Assay results: BindingDB's records for doi:10.7270/Q2Z899VD (Burnham Center For Chemical Genomics, 2010)

target: T1, Nucleotide-binding oligomerization domain-containing protein 1 (Homo sapiens, UniProt Q9Y239); test: blockers of NOD1 pathway activity – revised, SAR follow-up (AID 2333)
T1 sequence (Q9Y239 whole entry): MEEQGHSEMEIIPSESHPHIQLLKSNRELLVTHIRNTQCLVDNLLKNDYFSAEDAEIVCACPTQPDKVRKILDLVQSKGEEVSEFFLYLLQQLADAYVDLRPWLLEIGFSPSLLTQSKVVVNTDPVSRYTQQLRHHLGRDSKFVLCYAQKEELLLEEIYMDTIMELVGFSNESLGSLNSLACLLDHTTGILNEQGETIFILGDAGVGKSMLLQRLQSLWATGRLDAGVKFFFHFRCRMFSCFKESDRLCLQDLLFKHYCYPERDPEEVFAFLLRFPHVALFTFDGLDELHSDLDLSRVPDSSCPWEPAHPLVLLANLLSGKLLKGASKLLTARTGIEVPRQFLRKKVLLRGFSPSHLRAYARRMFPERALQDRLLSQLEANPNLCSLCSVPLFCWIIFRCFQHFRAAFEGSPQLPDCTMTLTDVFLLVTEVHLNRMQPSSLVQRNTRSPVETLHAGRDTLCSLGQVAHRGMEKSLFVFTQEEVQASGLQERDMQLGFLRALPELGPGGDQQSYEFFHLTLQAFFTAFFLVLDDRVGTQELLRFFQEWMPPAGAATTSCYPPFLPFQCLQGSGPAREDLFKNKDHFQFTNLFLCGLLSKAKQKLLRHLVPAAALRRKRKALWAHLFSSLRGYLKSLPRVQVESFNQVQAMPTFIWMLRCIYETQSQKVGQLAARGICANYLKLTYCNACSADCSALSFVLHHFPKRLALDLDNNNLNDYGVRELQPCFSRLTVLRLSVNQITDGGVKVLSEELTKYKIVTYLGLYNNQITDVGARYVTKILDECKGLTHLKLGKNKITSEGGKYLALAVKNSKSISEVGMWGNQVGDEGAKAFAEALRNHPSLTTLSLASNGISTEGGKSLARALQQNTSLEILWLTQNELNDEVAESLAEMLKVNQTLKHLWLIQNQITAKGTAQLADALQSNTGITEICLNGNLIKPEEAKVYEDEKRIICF

| SMILES | IC50 [µM] |
| --- | --- |
| Cc1cc(SCC(=O)OCC(=O)C(C#N)c2nc3ccccc3[nH]2)c(C)cc1Br (stereo not drawn) | > 20 |
| CCCOC1=CC(=O)C(C=NNC(=S)Nc2ccccc2[N+](=O)[O-])C=C1 (stereo not drawn) [1-(2-nitrophenyl)-3-[[(E)-(6-oxo-4-propoxy-1-cyclohexa-2,4-dienylidene)methyl]amino]thiourea] | 7.73 |
| Cc1cc(Br)ccc1SCC(=O)OCC(=O)C(C#N)c1nc2ccccc2[nH]1 (stereo not drawn) [2-[(4-bromo-2-methylphenyl)thio]acetic acid [3-cyano-3-(1,3-dihydrobenzimidazol-2-ylidene)-2-oxopropyl] ester] | > 20 |
| Cc1ccc(O)c(/N=C/C2=CC(Cc3ccccc3)C=C([N+](=O)[O-])C2=O)c1 (stereo not drawn) [(6E)-6-[[(5-methyl-2-oxidanyl-phenyl)amino]methylidene]-2-nitro-4-(phenylmethyl)cyclohexa-2,4-dien-1-one] | > 20 |
| Cc1ccc(C)c(SCC(=O)OCC(=O)C(C#N)c2nc3ccccc3[nH]2)c1 (stereo not drawn) [MLS000392255] | > 20 |
| N#CC(C(=O)COC(=O)CSc1ccc(Cl)cc1)c1nc2ccccc2[nH]1 (stereo not drawn) [MLS-0208254.0001] | > 20 |
| CCOC1=CC=CC(C=NNC(=S)Nc2ccccc2[N+](=O)[O-])C1=O (stereo not drawn) [MLS-0270696.0001] | 8.23 |
| N#CC(C(=O)COC(=O)CSc1ccc2ccccc2c1)c1nc2ccccc2[nH]1 (stereo not drawn) [[3-cyano-3-(1,3-dihydrobenzimidazol-2-ylidene)-2-oxopropyl] 2-naphthalen-2-ylsulfanylacetate] | > 20 |
